This passage reports Ki results from US5656660A, “Compositions and methods for treating mast-cell mediated conditions” (Arris Pharmaceutical Corporation, priority 1995, dated 1997).

pKi: −log10 of the molar value.

The experiment deals with tryptase. The experiment in a line: In vitro tryptase inhibition assay. The class given is biochemical, human. As to conditions: tosyl-Gly-Pro-Lys-p-nitroanilide 0.5 mM; 1 h preincubation at room temperature; pH 8.2. The method, then:
The compounds to be assayed (approximately 1 mg) were dissolved in 200 μL dimethylsulfoxide (DMSO) and diluted 1:10 into buffer containing 50 millimolar (mM) Tris-HCl (pH 8.2), 100 mM sodium chloride, and 0.05% polyoxyethylenesorbitan monolaurate (Tween-20°, available from Sigma, St. Louis, Mo.). Seven additional threefold dilutions were made from the initial dilution into the same buffer supplemented with 10% DMSO. Aliquots (50 microliters, μL) from each of the eight dilutions in the series were transferred to individual wells in a 96-well U-bottom microtiter plate. […] The tryptase solution was prepared by placing 60 μg/mL of tryptase into solution with 10 mM MES (2-[N-Morpholino]ethane sulfonic acid) containing 2 mM CaCl2, 20% glycerol and 50 μg/mL heparin. The enzyme reaction was initiated with the addition of the synthetic tripeptide substrate, tosyl-Gly-Pro-Lys-p-nitroanilide (available from Sigma, 25 μL; 0.5 mM final concentration). […] Initial velocity measurements calculated from the progress curves by a kinetic analysis program (BatchKi; Petr Kuzmic, University of Wisconsin, Madison, Wis.) were used to determine apparent inhibition constants for each inhibitor.
In the case of `CN(Cc1ccc(CN(C)C(=O)CCCC(=O)NCC2CCC(CN)CC2)cc1)C(=O)CCCC(=O)NCC1CCC(CN)CC1` (stereo not drawn) [Example 27, N,N'-Bis(methyl)-bis(N-(4-aminomethylcyclohexylmethyl)-glutaramido)-p-xylylene didmine], the pKi was 6.86.

In the case of `CN(Cc1ccc(CN)cc1)C(=O)CCC(=O)NCc1ccc(CNC(=O)CCC(=O)N(C)Cc2ccc(CN)cc2)cc1` [Example 30, N,N,-Bis(N-methyl-N-(4-aminomethylbenzyl)-succinamido)-p-xylylene diamide], the pKi was 5.64. For `NCC1CCC(C(=O)NCCCC(=O)NCc2ccc(CNC(=O)CCCNC(=O)C3CCC(CN)CC3)cc2)CC1` (stereo not drawn) [Example 49], the negative logarithm of the Ki (pKi) was 6.44.

On to `NCc1ccc(C(=O)NCCCC(=O)NCc2ccc(CNC(=O)CCCNC(=O)c3ccc(CN)cc3)cc2)cc1` [Example 12, N,N'-Bis(N-(4-aminomethylbenzamido)-4-aminobutyric)-p-xylylene diamide], for which the pKi was 7.07. `NCc1ccc(C(=O)NCCCCNC(=O)c2ccc(C(=O)NCCCCNC(=O)c3ccc(CN)cc3)cc2)cc1` [Example 34, N,N'-Bis[4-(aminomethylbenzamido)butyl]-terephthalyldiamide]: the pKi was 6.65. For the compound `N=C(N)Nc1ccc(CNC(=O)[C@@H]2CCCN2C(=O)OCc2ccc(COC(=O)N3CCC[C@H]3C(=O)NCc3ccc(NC(=N)N)cc3)cc2)cc1` [Example 4, Bis((4-quanidylbenzyl)-L-prolineamide-N^α -carbonyl)-1,4-dimethanolbenzene], the pKi is 5.40.

The compound `C[C@@H](NC(=O)OCc1ccc(COC(=O)N[C@H](C)C(=O)NCc2ccc(NC(=N)N)cc2)cc1)C(=O)NCc1ccc(NC(=N)N)cc1` [Example 6] gave a negative-log Ki (pKi) of 6.44.

For `N=C(N)NCc1ccc(NC(=O)CNC(=O)OCc2ccc(COC(=O)NCC(=O)Nc3ccc(CNC(=N)N)cc3)cc2)cc1` [Example 43, Bis((4-guanidomethylanilido)glycine)-1,4-benzenedimethanol dicarbamate], the negative logarithm of the Ki (pKi) was 5.09. Then `CN(Cc1ccc(CN(C)C(=O)CCC(=O)NCC2CCC(CN)CC2)cc1)C(=O)CCC(=O)NCC1CCC(CN)CC1` (stereo not drawn) [Example 25, N,N'-Bis(methyl)-bis(N-(4-aminomethylcyclohexylmethyl)succinamido)-p-xylylene diamide], with 6.93.

In the case of `CN(Cc1ccc(CN(C)C(=O)CN(C)C(=O)NC[C@H]2CC[C@H](CN)CC2)cc1)C(=O)CN(C)C(=O)NC[C@H]1CC[C@H](CN)CC1` [Example 54, N,N'-Bis(methyl)-bis(sarcosine-trans-1,4-cyclohexylbis(methylamine)urea)-p-xylylene diamide], the pKi is 6.22. Turning to `NC[C@H]1CC[C@H](C(=O)NCCCCNC(=O)OCc2ccc(COC(=O)NCCCCNC(=O)[C@H]3CC[C@H](CN)CC3)cc2)CC1` [Example 33, N,N'-Bis(trans-4-aminomethyl-cyclohexyl-1-amidobutyl)-1,4-benzene dimethanol dicarbamate], the pKi is 7.32. Then `NCc1ccc(CNC(=O)NCC(=O)NCCc2ccc(NC(=O)CNC(=O)NCc3ccc(CN)cc3)cc2)cc1` [Example 50, Bis(N-(4-aminomethylbenzyl)glycylurea)-1,4-phenethylenediamide], with 7.37. As to `CC1(C)O[C@@H](C(=O)NCc2ccc(CN)cc2)[C@H](C(=O)NCc2ccc(CNC(=O)[C@@H]3OC(C)(C)O[C@H]3C(=O)NCc3ccc(CN)cc3)cc2)O1` [Example 28, N,N'-Bis(N-(4-aminomethylbenzyl)-dimethyl-2,3-isopropylidenetartaramido)-p-xylylene diamide], the pKi is 6.19. Then `NCc1ccc(CNC(=O)CNC(=O)OCc2ccc(COC(=O)NCC(=O)NCc3ccc(CN)cc3)cc2)cc1` [Example 1, Bis(p-xylylenediamineglycine)-1,4-benzenedimethanol dicarbamate], with 9.25; and `CN(CC(=O)NCc1ccc(CN)cc1)C(=O)OCc1ccc(COC(=O)N(C)CC(=O)NCc2ccc(CN)cc2)cc1` [Example 18, Bis(p-xylylenediaminesarcosine)-1,4-benzenedimethanol dicarbamate], with 8.30.
